Patent US20250296953A1, “3,4-THIAZOLO-STEROIDS AND METHODS OF MAKING AND USING THE SAME” (Arkansas State University - Jonesboro, priority 2018, published 2025)

How the values were obtained:
SF-295 = assay: NCI 60 one dose screen; assay type: cell-based, human; settings: one dose; CNS Cancer; SF-295
NCI-H522 (NSCLC) = assay: NCI 60 one dose screen; assay type: cell-based, human; settings: Non-small Cell Lung Cancer
[1] = tested on: 60 different human tumor cell lines; assay: NCI Development Therapeutics Program 60 cell line screen, one dose; assay type: cell-based
SK-MEL-28 = assay: Melanoma cytotoxicity assay (resazurin); assay type: cell-based; settings: SK-MEL-28 melanoma cells, 24 hours with compound, resazurin; concentration not given
Method in brief: (§1)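 ~4000 cells/well, 24 h attach, 37° C/5% CO2; cpd triplicate, 24 h; resazurin 6 h; fluor 544/590 nm. % viability vs DMSO after media-blank subtraction; IC50 from dilution series, sigmoidal fit.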

SK-MEL-25 = assay: Melanoma cytotoxicity assay (resazurin); assay type: cell-based; settings: SK-MEL-25 melanoma cells, 24 hours with compound, resazurin; concentration not given
Method in brief: as §1

SK-MEL-5 = assay: Melanoma cytotoxicity assay (resazurin); assay type: cell-based; settings: SK-MEL-5 melanoma cells, 24 hours with compound, resazurin; concentration not given
Method in brief: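 Readout: resazurin fluorescence (ex 544, em 590 nm) after 6 h dye incubation, following 24 h compound exposure of ~4000 cells/well. Viability = background-subtracted signal over DMSO wells; IC50 by sigmoidal curve fitting.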

HCT-15 (Colon Cancer) = assay: NCI 60 one dose screen; assay type: cell-based, human
SF-539 = assay: NCI 60 one dose screen; assay type: cell-based, human; settings: one dose; CNS Cancer; SF-539

With `CN(c1ccccc1)c1nc2c(s1)CC[C@@]1(C)C2=CC[C@@H]2[C@@H]1CC[C@]1(C)C(=O)CC[C@@H]21` [IIa.6, (1S,2R,13R,14S,18S)-2,18-dimethyl-7-(N-methylanilino)-6-thia-8-azapentacyclo[11.7.0.02,10.05,9.014,18]icosa-5(9),7,10-trien-17-one] the “Growth Percent” value (SF-295) was 42.68%, the “Growth Percent” value (NCI-H522 (NSCLC)) was 8.26% and the “Growth Percent” value ([1]; Breast Cancer, BT-549) was 45.19%. The “Growth Percent” value ([1]; Breast Cancer, HS 578T) was 54.53%, the “Growth Percent” value ([1]; Breast Cancer, MCF7) was 32.55% and the “Growth Percent” value ([1]; Breast Cancer, MDA-MB-231/ATCC) was 68.22%. The “Growth Percent” value ([1]; Breast Cancer, MDA-MB-468) was 29.56%, the “Growth Percent” value ([1]; Breast Cancer, T-47D) was 65.84% and the “Growth Percent” value ([1]; CNS Cancer, SF-268) was 73.87%. The “Growth Percent” value ([1]; CNS Cancer, SNB-19) was 54.72%, the “Growth Percent” value ([1]; CNS Cancer, SNB-75) was 73.17% and the “Growth Percent” value ([1]; CNS Cancer, U251) was 36.99%. For the same compound, the “Growth Percent” value ([1]; Colon Cancer, COLO 205) was 48.79%, the “Growth Percent” value ([1]; Colon Cancer, HCC-2998) was 82.14% and the “Growth Percent” value ([1]; Colon Cancer, HCT-116) was 32.71%. For the same compound, the “Growth Percent” value ([1]; Colon Cancer, HT29) was 10.25%, the “Growth Percent” value ([1]; Colon Cancer, KM12) was 33.11% and the “Growth Percent” value ([1]; Colon Cancer, SW-620) was 44.14%. The “Growth Percent” value ([1]; Leukemia, CCRF-CEM) was 44.17%, the “Growth Percent” value ([1]; Leukemia, HL-60(TB)) was 44.55% and the “Growth Percent” value ([1]; Leukemia, MOLT-4) was 45.63%. For the same compound, the “Growth Percent” value ([1]; Leukemia, RPMI-8226) was 48.36%, the “Growth Percent” value ([1]; Leukemia, SR) was 31.74% and the “Growth Percent” value ([1]; Melanoma, LOX IMVI) was 66.30%. The “Growth Percent” value ([1]; Melanoma, M14) was 41.12%, the “Growth Percent” value ([1]; Melanoma, MALME-3M) was 55.43% and the “Growth Percent” value ([1]; Melanoma, MDA-MB-435) was 2.34%. The “Growth Percent” value ([1]; Melanoma, SK-MEL-2) was 49.76%, the “Growth Percent” value ([1]; Melanoma, SK-MEL-5) was 32.53% and the “Growth Percent” value ([1]; Melanoma, SK-MEL-28) was 72.19%. For the same compound, the “Growth Percent” value ([1]; Melanoma, UACC-62) was 38.23%, the “Growth Percent” value ([1]; Melanoma, UACC-257) was 67.13% and the “Growth Percent” value ([1]; Non-small Cell Lung Cancer, A549/ATCC) was 47.72%. For the same compound, the “Growth Percent” value ([1]; Non-small Cell Lung Cancer, EKVX) was 78.34%, the “Growth Percent” value ([1]; Non-small Cell Lung Cancer, HOP-62) was 70.07% and the “Growth Percent” value ([1]; Non-small Cell Lung Cancer, HOP-92) was 78.79%. For the same compound, the “Growth Percent” value ([1]; Non-small Cell Lung Cancer, NCI-H23) was 79.64%, the “Growth Percent” value ([1]; Non-small Cell Lung Cancer, NCI-H226) was 83.39% and the “Growth Percent” value ([1]; Non-small Cell Lung Cancer, NCI-H322M) was 89.66%. For the same compound, the “Growth Percent” value ([1]; Non-small Cell Lung Cancer, NCI-H460) was 38.69%, the “Growth Percent” value ([1]; Ovarian Cancer, IGROV1) was 67.27% and the “Growth Percent” value ([1]; Ovarian Cancer, NCI/ADR-RES) was 43.96%. For the same compound, the “Growth Percent” value ([1]; Ovarian Cancer, OVCAR-3) was 36.20%, the “Growth Percent” value ([1]; Ovarian Cancer, OVCAR-4) was 83.97% and the “Growth Percent” value ([1]; Ovarian Cancer, OVCAR-5) was 98.72%. The “Growth Percent” value ([1]; Ovarian Cancer, OVCAR-8) was 76.81%, the “Growth Percent” value ([1]; Ovarian Cancer, SK-OV-3) was 79.14% and the “Growth Percent” value ([1]; Prostate Cancer, DU-145) was 79.22%. The “Growth Percent” value ([1]; Prostate Cancer, PC-3) was 71.01%, the “Growth Percent” value ([1]; Renal Cancer, 786-0) was 58.79% and the “Growth Percent” value ([1]; Renal Cancer, A498) was 50.67%. The “Growth Percent” value ([1]; Renal Cancer, ACHN) was 93.66%, the “Growth Percent” value ([1]; Renal Cancer, CAKI-1) was 61.11% and the “Growth Percent” value ([1]; Renal Cancer, RXF 393) was 79.66%. The “Growth Percent” value ([1]; Renal Cancer, SN12C) was 77.26%, the “Growth Percent” value ([1]; Renal Cancer, TK-10) was 91.08% and the “Growth Percent” value ([1]; Renal Cancer, UO-31) was 79.34%. The “SK-MEL-28 (% inhibition)” value (SK-MEL-28) was 60%, the “SK-MEL-25 (% inhibition)” value (SK-MEL-25) was 60% and the “SK-MEL-5 (% inhibition)” value (SK-MEL-5) was 63%. For the same compound, the “Growth Percent” value (HCT-15 (Colon Cancer)) was 35.23% and the “Growth Percent” value (SF-539) was 51.35%.
